Measured values reported in PMC3811480, “The R Enantiomer of the Antitubercular Drug PA-824 as a Potential Oral Treatment for Visceral Leishmaniasis” (Antimicrobial Agents and Chemotherapy, 2013).
Values joined by “and” are separate entries in the source; they are usually repeats but may differ in a detail not shown here. Equal values may be shown once. “Also recorded” adds a separate entry of the source. Read-outs that look alike come from different tables or passages of the source.

What was measured:
[1] = tested on: lab-generated strains of nifurtimox-resistant T. brucei; settings: cited from earlier work
[2] = tested on: Leishmania donovani LdBOB promastigotes; test: In vitro drug sensitivity assay, L. donovani promastigotes (72 h, resazurin); type: cell-based; settings: for activity against L. donovani promastigotes: highest concentration tested 50 μM; for EC50: Leishmania donovani
[3] = tested on: L. donovani intracellular amastigotes in mouse peritoneal macrophages; test: In-macrophage drug sensitivity assay; type: cell-based, Leishmania donovani; settings: for activity against L. donovani intracellular amastigotes: highest concentration tested 50 μM; for EC50: L. donovani amastigote (in macrophage)
[4] = mouse PPB, equilibrium dialysis
[5] = tested on: L. donovani amastigotes (LV9); test: In vivo drug sensitivity, mouse model of visceral leishmaniasis (liver parasite burden); design: species or system Leishmania donovani; settings: for suppression of infection (liver parasite burden) / suppression of infection (liver parasite burden) compared to untreated controls: BALB/c mice; for suppression of infection (liver parasite burden) compared to untreated controls: 30 mg kg^−1 orally twice daily for 5 days
[6] = tested on: Transgenic LdBOB promastigotes expressing the Leishmania major nitroreductase (LmjF.05.0660); test: microbe, parasite or virus in culture; type: cell-based, Leishmania donovani; settings: for EC50: Leishmania major, read-out: EC50 against NTR-overexpressing promastigotes
[7] = tested on: Trypanosoma cruzi Silvio-X10/7 clone A1 epimastigotes; test: In vitro drug sensitivity assay, T. cruzi epimastigotes (72 h, resazurin); type: cell-based; settings: T. cruzi epimastigote
[8] = tested on: Trypanosoma brucei brucei S427 29-13 procyclic trypomastigotes; test: In vitro drug sensitivity assay, T. brucei procyclics (72 h, resazurin); type: cell-based
[9] = mouse liver microsomes, 0.5 μM compound
[10] = Exposure in mice after acute oral dosing (blood levels, UPLC-MS/MS); type: in vivo, BALB/c mice; settings: for half-life: read-out: elimination half-life (t1/2) (converted); for Tmax: read-out: time of maximum concentration in blood
Procedure: The R and S enantiomers of PA-824 (50 mg kg^−1) were orally administered to BALB/c mice. Blood samples (10 μl) were collected from the tail vein of each animal into sample storage tubes (Micronic BV) containing deionized water (20 μl) at defined intervals postdose and stored at −80°C until analysis. The level of each enantiomer in mouse blood was determined by UPLC-MS/MS ([20]).

HepG2 cells = test: HepG2 counterscreen (resazurin); type: cell-based; settings: Homo sapiens; Mammalian (HepG2); n = 2
in vitro = settings: mouse, plasma
[11] = tested on: T. brucei bloodstream forms (S427 Single Marker); settings: previously determined value; cited from earlier work
[12] = Tolerability in mice during the efficacy study; type: in vivo, BALB/c mice; settings: 30 or 100 mg kg^−1 orally twice daily for 5 days
Procedure: All animal experiments were approved by the University Ethical Review Committee and performed under the Animals (Scientific Procedures) Act 1986 in accordance with the European Communities Council Directive (86/609/EEC). Groups of female BALB/c mice (5 per group) were inoculated intravenously with approximately 2 × 10^7 L. donovani amastigotes (LV9; WHO designation MHOM/ET/67/HU3) harvested from the spleen of an infected hamster ([24]). […] Drug dosing solutions were prepared fresh each day, and the vehicle for both enantiomers of PA-824 was 10% (vol/vol) dimethyl sulfoxide (DMSO), 40% polyethylene glycol 400, and 50% deionized water. On day 14 postinfection, all animals were humanely euthanized and parasite burdens were determined by counting the number of amastigotes/500 liver cells ([11]). Parasite burden is expressed in Leishmania donovani units (LDU), mean number of amastigotes per liver cell × mg weight of liver ([25]).

LdBOB promastigotes = test: PA-824-mediated cell killing (time to kill, wash-out viability); type: cell-based, Leishmania donovani; settings: 10 times EC50, promastigotes
[13] = tested on: T. cruzi amastigotes in Vero cells; test: In-Vero-cell T. cruzi drug sensitivity assay (72 h, high-content imaging); type: cell-based; settings: Trypanosoma cruzi; T. cruzi amastigote (in Vero cell)
[14] = tested on: promastigotes of the LdBOB strain of L. donovani; test: Drug combination studies (fixed-ratio isobologram, 72 h); type: cell-based, Leishmania donovani; settings: for EC50: Leishmania donovani, compound alone, duplicate cultures, read-out: Absolute EC50
Procedure: The EC50s of each combination were determined after 72 h and plotted as an isobologram ([23]).

[15] = tested on: Mycobacterium tuberculosis; design: method as in PMID 22023140; settings: cited from earlier work
[16] = tested on: T. brucei bloodstream forms (S427 Single Marker); test: In vitro drug sensitivity assay, bloodstream-form T. brucei; type: cell-based; settings: Trypanosoma brucei
[17] = tested on: L. donovani intracellular amastigotes in mouse peritoneal macrophages; settings: comparator value, earlier work of the authors; cited from earlier work
[18] = WT LdBOB promastigotes, nitroreductase experiment (Fig. 2), read-out: EC50 against wild-type (WT) promastigotes
[19] = BALB/c, mouse, whole blood, 50 mg kg^−1 oral
[20] = L. donovani promastigote, read-out: EC50
[21] = Leishmania donovani, Peritoneal macrophage
[22] = Leishmania donovani, Peritoneal macrophage, L. donovani in macrophages, from EC50 and Hill slope, read-out: EC90
[23] = 100 mg kg^−1 orally twice daily for 5 days
[24] = fixed-ratio isobologram, promastigotes

For `CSc1ccc(OCc2ncc([N+](=O)[O-])n2C)cc1` [fexinidazole], the “sensitivity of nifurtimox-resistant T. brucei” value [1] is given as “cross resistant”.
In the case of `FC(F)(F)Oc1ccc(CO[C@H]2COc3nccn3C2)cc1` [(R)-des-nitro-PA-824], the “activity against L. donovani promastigotes” value [2] is reported as “inactive”, the “activity against L. donovani intracellular amastigotes” value [3] is reported as “inactive” and the “fraction unbound (plasma protein binding)” value [4] is reported as 0.45.
In the case of `O.O.O.O.O.O.O.O.O.O=C([O-])[C@@H]1[O][Sb](=[O])([O][Sb]2(=[O])[O][C@H]([C@H](O)CO)[C@H](O)[C@H](C(=O)[O-])[O]2)[O][C@H]([C@H](O)CO)[C@@H]1O.[Na+].[Na+].[Na+]` (stereo partly drawn) [sodium stibogluconate], the “suppression of infection (liver parasite burden)” value ([5]; 15 mg kg^−1 subcutaneously once daily for 5 days) is reported as 41.9%.
For `CC1CS(=O)(=O)CCN1/N=C/c1ccc([N+](=O)[O-])o1` (stereo not drawn) [nifurtimox], the EC50 [2, 18] was 5.6 ± 0.16 µM, the EC50 [6] was 0.2 ± 0.09 µM and the “increase in sensitivity of nitroreductase-overexpressing parasites” value ([6]; transgenic versus wild-type) was 26 fold.
With `FC(F)(F)Oc1ccc(CO[C@@H]2COc3nccn3C2)cc1` [(S)-des-nitro-PA-824] the “activity against L. donovani promastigotes” value [2] was “inactive” and the “activity against L. donovani intracellular amastigotes” value [3] was “inactive”.
With `O=[N+]([O-])c1cn2c(n1)OC[C@@H](OCc1ccc(OC(F)(F)F)cc1)C2` [(S)-PA-824, reference compound] the EC50 [7] was 3.4 ± 0.03 µM, the EC50 [8] was 36.5 ± 2.5 µM and the CLint [9] was 1.6 mL/min/g. The oral bioavailability [10] was “orally bioavailable”, the “maximum concentration in blood” value ([10]; 50 mg kg^−1 oral) was 11,600 ng ml^−1 and the concentration at 24 h ([10]; BALB/c, mouse, whole blood, 50 mg kg^−1 oral, 24 h) was 900 ng/mL. It also gave a half-life [10, 19] of about 5 h, a Tmax [10, 19] of 4 h and an EC50 [2, 20] of 0.9 ± 0.1 µM. It also gave an EC50 [2, 18] of 0.96 ± 0.02 µM, an EC50 (HepG2 cells) of over 50 µM and an EC50 [6] of 0.8 ± 0.04 µM. It also gave a fraction unbound (in vitro) of 0.21, an EC50 [3] of 4.92 ± 0.3 µM and an EC50 [3, 21] of 4.9 ± 0.3 µM. For the same compound, the EC90 [3, 22] was 22 µM, the EC50 [11] was 37.8 ± 3.2 µM and the tolerability in mice [12] was “extremely well tolerated”. The cytocidal or cytostatic (LdBOB promastigotes) was “leishmanicidal rather than cytostatic”, the “time after which cell numbers begin to decline” value (LdBOB promastigotes) was 12 h and the “time at which no intact/live parasites remain” value (LdBOB promastigotes) was 36 h. The “suppression of infection (liver parasite burden) compared to untreated controls” value [5] was “approximately 35%”, the “suppression of infection (liver parasite burden)” value [5, 23] was “comparable to those seen in drug-free animals; also recorded: less efficacious” and the “dose dependence of leishmanicidal effect” value ([5]; earlier in vivo study, range of doses down to 0.4 mg kg^−1, twice daily orally (Fig. S1)) was “apparent absence of a dose-dependent leishmanicidal effect”. The EC50 [13] was over 30 µM, the solubility (physchem) was over 250 µM and the EC50 ([14]; Fig. 3B experiment) was 0.74 µM.
For `CCCCCCCCCCCCCCCCOP(=O)([O-])OCC[N+](C)(C)C` [miltefosine], the “suppression of infection (liver parasite burden)” value ([5]; 12 mg kg^−1 orally once daily for 5 days) was 68.7%.
In the case of `O=[N+]([O-])c1cn2c(n1)OC[C@H](OCc1ccc(OC(F)(F)F)cc1)C2` [(R)-PA-824], the EC50 [7] is given as 0.7 ± 0.08 µM, the EC50 [8] is given as 25 ± 0.2 µM and the MIC [15] is given as over 100 µM. For the same compound, the CLint [9] was 0.65 mL/min/g, the oral bioavailability [10] was “orally bioavailable” and the “maximum concentration in blood” value ([10]; 50 mg kg^−1 oral) was 10,500 ng ml^−1. For the same compound, the half-life [10, 19] was about 2 h, the Tmax [10, 19] was 4 h and the EC50 [2, 20] was 0.16 ± 0.03 µM. It also gave an EC50 (HepG2 cells) of over 50 µM, an EC50 [6] of 0.11 ± 0.005 µM and an EC50 [16] of 14.9 ± 0.7 µM. The fraction unbound (in vitro) was 0.22, the EC50 [3] was 0.93 ± 0.06 µM and the EC50 [3, 21] was 0.9 ± 0.1 µM. The EC90 [3, 22] was 3.4 µM, the EC90 ([3]; Leishmania donovani, Peritoneal macrophage, not adjusted for plasma protein binding, read-out: EC90 (equivalent mass concentration)) was 1.2 µg/mL and the tolerability in mice [12] was “extremely well tolerated”. For the same compound, the cytocidal or cytostatic (LdBOB promastigotes) was “leishmanicidal rather than cytostatic; also recorded: cytocidal rather than cytostatic”, the “time after which cell numbers begin to decline” value (LdBOB promastigotes) was 12 h and the “time at which no intact/live parasites remain” value (LdBOB promastigotes) was 24 h. The “suppression of infection (liver parasite burden) compared to untreated controls” value [5] was “approximately 35%”, the “suppression of infection (liver parasite burden)” value [5, 23] was > 99% and 99.9% and the EC50 [13] was 4.4 ± 0.5 µM. For the same compound, the solubility (physchem) was over 250 µM, the EC50 ([14]; Fig. 3A experiment) was 0.18 µM and the EC50 ([14]; Fig. 3B experiment) was 0.1 µM. For the same compound, the “interaction in combination with (S)-PA-824” value [14, 24] was “mild antagonistic behavior; also recorded: progressively more antagonistic; also recorded: mildly antagonistic” and the “interaction in combination with fexinidazole sulfone” value [14, 24] was “act additively; also recorded: additive effect”.
For `Cn1c([N+](=O)[O-])cnc1COc1ccc(S(C)(=O)=O)cc1` [fexinidazole sulfone, reference compound], the EC50 [17] is listed as 5.3 µM and the EC50 ([14]; Fig. 3A experiment) is listed as 8.8 µM.
